System: SK-BR-3
Assay: Cytotoxicity against human SK-BR-3 cells after 48 hrs by MTT assay
Assay type: functional, cell-based
Details: SK-BR-3, 48 h

CC(=O)O[C@@H](CC1=C(O)C(=O)OC1)[C@]1(C)[C@H]2CCC=C(C)[C@]2(C)[C@@H](OC(=O)c2ccccc2)[C@H](OC(=O)c2ccccc2)[C@]1(C)O (mixture of isomers) [SCUTEBATA A]
IC50: 15.2 µM
